This note sets out measurements from US20210267996A1, “Compounds for inhibition of inflammation” (Children`s Medical Center Corporation, priority 2018, published 2021).

Molecules are shown by their SMILES. Entries after “also recorded” stand apart in the source; their conditions may differ.

Experiment [1] has as its system mouse iBMDMs. Description: Non-canonical inflammasome pyroptosis, iBMDMs with LPS electroporation. The experiment is classed as cell-based. The protocol:
Cell lines and treatments: THP-1 cells and HEK293T cells (obtained from ATCC) were grown in RPMI with 10% heat-inactivated fetal bovine serum, supplemented with 100 U/ml penicillin G, 100 μg/ml streptomycin sulfate, 6 mM HEPES, 1.6 mM L-glutamine, and 50 μM 2ME. C57BL/6 mouse iBMDM cells were kindly provided by J. Kagan (Boston Children's Hospital) and cultured in DMEM with the same supplements. Cells were verified to be free of mycoplasma contamination. Transient transfection of HEK293T cells was performed using Lipofectamine 2000 (Invitrogen) according to the manufacturer's instructions. iBMDM cells were transfected by nucleofection using the Amaxa Nucleofector kit (VPA-1009). […] To examine IκBα. phosphorylation and degradation as well as IL-1β induction, PMA-differentiated THP-1 cells were stimulated with LPS (1 μg/ml) for 0.5, 1 and 4 hrs, respectively. For noncanoical inflammasome activation, 1 million iBMDM cells were electroporated with 1 μg ultra LPS.
Cytotoxicity and cell viability assays: cell death and cell viability were determined by the lactate dehydrogenase release assay using the CytoTox 96 Non-Radioactive Cytotoxicity Assay kit (Promega) and by measuring ATP levels using the CellTiter-Glo Luminescent Cell Viability Assay (Promega), respectively, according to the manufacturer's instructions. Luminescence and absorbance were measured on a BioTek Synergy 2 plate reader.
In FIGS. 4, 6, and 8, PMA-differentiated LPS-primed human THP-1 were pre-treated with indicated concentrations of each compound for 1 h before adding nigericin or medium. The number of surviving cells was determined by CellTiter-Glo assay (FIGS. 4 and 6) and IL-1β in culture supernatants was assessed by ELISA (FIG. 8) 2 hrs later. In FIGS. 5, 7, and 9, mouse iBMDMs were pre-treated with each test compound for 1 hr before electroporation with PBS or LPS. The number of surviving cells was determined by CellTiter-Glo assay (FIGS. 5 and 7) and IL-1β in culture supernatants was assessed by ELISA (FIG. 9) 2.5 hrs later. In FIGS. 8 and 9, 40 μM concentration of test compounds were added.

Experiment [2] concerns the target T1, Alexa 488-labeled His-MBP-GSDMD (Homo sapiens, UniProt P57764).
T1 construct: made in house; host or cells: E. coli BL21 (DE3)
Briefly: Microscale thermophoresis (MST) binding assay. The protocol: Fluorescent protein labelling and microscale thermophoresis binding assay: His6-MBP-GSDMD was labeled with AlexaFluor-488 using the Molecular Probes protein labelling kit. Binding of inhibitors to GSDMD was evaluated using microscale thermophoresis (MST). Ligands (49 nM-150 μM) were incubated with purified AlexaFluor-488-labeled protein (80 nM) for 30 min in assay buffer (20 mM HEPES, 150 mM NaCl, 0.05% Tween 20). The sample was loaded into NanoTemper Monolith NT. 115 glass capillaries and MST carried out using 20% LED power and 40% MST power. Kd values were calculated using the mass action equation and NanoTemper software.
The test compounds were assessed for GSDMD binding by microscale thermophoresis (MST).
On the technique in general: In MST a laser heats a spot of the sample, and binding alters the fluorescence response.

The next experiment addresses C191A GSDMD (Homo sapiens, UniProt P57764, C191A).
The next experiment relates to NLRP3, GSDMD and HMGB1. Description: Peritoneal macrophages of LPS-challenged mice (immunoblot). Particulars: 6 hrs after LPS. The format is in vivo, mouse. The protocol:
(§1) Drug administration and LPS-induced sepsis in mice. […] In the indicated group of mice in FIG. 5h, copper gluconate (0.15 mg/kg) was administered intraperitoneally 6 hr prior to the first injection of DSF. Sepsis was induced in C57BL/6 mice (8-10 weeks old) by intraperitoneal injection of LPS (E. coli O111:B4) at indicated concentrations. In some experiments, mice were treated with copper gluconate (0.15 mg/kg) or vehicle by intraperitoneal injection 5 hr before LPS challenge and then given DSF (50 mg/kg) intraperitoneally dissolved in sesame oil or vehicle 4 hr before and just before LPS challenge (15 mg/kg intraperitoneally). Peritoneal cells were collected by rinsing the peritoneal cavity with ice cold PBS containing 3% FBS 6 hr after LPS challenge. To measure cytokines, blood samples were collected by tail vein bleed 12 hr post LPS challenge and allowed to clot at room temperature. Sera obtained after centrifugation at 2,000×g for 10 min were analysed for inflammatory cytokines by ELISA.
Peritoneal macrophages were harvested 6 hrs later and analysed for NLRP3, GSDMD and HMGB1 by immunoblot.
(In general: In western blotting, separated proteins are transferred to a membrane and probed.)

A further experiment deals with T2, human GSDMD-3C (Homo sapiens, UniProt P57764).
T2 sequence (P57764 1-271 limits assumed): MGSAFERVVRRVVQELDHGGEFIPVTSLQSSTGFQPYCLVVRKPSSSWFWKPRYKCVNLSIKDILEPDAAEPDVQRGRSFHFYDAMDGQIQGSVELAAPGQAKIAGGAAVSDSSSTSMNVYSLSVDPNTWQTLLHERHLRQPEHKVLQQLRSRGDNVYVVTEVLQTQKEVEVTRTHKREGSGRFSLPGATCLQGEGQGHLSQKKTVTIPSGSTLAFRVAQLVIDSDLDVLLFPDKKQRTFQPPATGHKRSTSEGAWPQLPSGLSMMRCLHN
Briefly: Pore reconstitution on nanodiscs, negative staining EM.

In experiment [3] the test system is LPS-induced sepsis in C57BL/6 mice. Description: LPS-induced sepsis in mice, survival. The format is in vivo, mouse. On the procedure: Mice. 8-week-old female C57BL/6 wild-type mice were purchased from The Jackson Laboratory and maintained at the SPF facility at Harvard Medical School. All mouse experiments were conducted using protocols approved by the Animal Care and Use Committees of Boston Children's Hospital and Harvard Medical School.
as §1
Cell death was determined by CytoTox96 assay. […] Statistical analysis was performed using the log-rank test (In FIGS. 14, 16, 17, mice/group). […] Serum was obtained 12 hrs post LPS challenge. Shown are mean±s.d. […] Statistical analysis was performed using the log-rank test (8 mice/group).

Another experiment relates to HT-29 cells. Briefly: Necroptosis induced by TNFα, SMAC mimetic and z-VAD-fmk. The format is cell-based. Particulars: SMAC mimetic.
The subject of experiment [4] is mouse iBMDMs. Description: AIM2 inflammasome cell death, iBMDMs transfected with poly(dA:dT). Particulars: poly(dA:dT) transfection. The format is cell-based.

T1 sequence (P57764 whole entry): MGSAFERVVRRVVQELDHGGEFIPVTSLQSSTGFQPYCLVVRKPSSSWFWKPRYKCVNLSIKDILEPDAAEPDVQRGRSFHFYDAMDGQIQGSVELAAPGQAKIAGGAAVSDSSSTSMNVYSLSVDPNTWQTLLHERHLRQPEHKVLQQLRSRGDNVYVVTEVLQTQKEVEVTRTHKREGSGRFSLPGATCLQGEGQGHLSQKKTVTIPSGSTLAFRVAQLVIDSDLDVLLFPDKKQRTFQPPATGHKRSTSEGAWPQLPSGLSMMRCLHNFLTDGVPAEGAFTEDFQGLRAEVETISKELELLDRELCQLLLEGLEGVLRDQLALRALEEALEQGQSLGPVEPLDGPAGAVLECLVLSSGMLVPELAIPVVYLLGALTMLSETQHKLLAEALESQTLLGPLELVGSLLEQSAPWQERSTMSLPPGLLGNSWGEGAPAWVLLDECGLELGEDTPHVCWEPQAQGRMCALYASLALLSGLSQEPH
Chain of C191A GSDMD (P57764 whole entry C191A): as the sequence (P57764 whole entry) above, with C191A counted along it
Procedure for C191A GSDMD: Liposome leakage assay: fluorogenic liposome leakage assay detects leakage of Tb^3+ from Tb^3+-loaded liposomes incubated with GSDMD and caspase-11 (See References 7 and 9). Liposome leakage was detected by an increase in fluorescence when Tb^3+ bound to dipicolinic acid (DPA) in Buffer C. […] The fluorescence intensity of the well was measured at 545 nm with an excitation of 276 nm 1 hr after addition of caspase-11 using a Perkin Elmer EnVision plate reader. The final percent inhibition was calculated as [(fluorescencetest compound−fluorescencenegative control)/(fluorescencepositive control−fluorescencenegative control)]×100, where a well with GSDMD without the test compound was used as positive control, and a well without caspase-11 was used as negative control.
Source text for HT-29 cells: Inhibition was shown by cell survival, assessed by CellTiter-Glo ATP luminescence, and membrane permeabilization, assessed by uptake of the membrane-impermeable dye SYTOX Green.
Procedure for human GSDMD-3C: To form GSDMD pores on the nanodiscs, purified human GSDMD-3C was incubated with 3C protease in the presence of nanodiscs for 6 hrs on ice. […] For negative staining electron microscopy, a 5-μl sample was placed onto a glow-discharged carbon-coated copper grid (Electron Microscopy Sciences), washed twice with Buffer A, stained with 1% uranyl formate for 1 min, and air-dried. The grids were imaged on the Tecnai G^2 Spirit BioTWIN electron microscope and recorded with an AMT 2 k CCD camera (Harvard Medical School Electron Microscopy Facility).
3C protease cleavage of the engineered GSDMD-3C liberates an active NT fragment.

On to `Cc1ccc(S(=O)(=O)/C=C/C#N)cc1` [Bay 11-7082], for which the “inhibition of non-canonical inflammasome pyroptosis” value in the experiment on mouse iBMDMs [1] is on record as “less active than disulfiram”. In experiment [2], the “binding to GSDMD according to MST” value is recorded as “bound to GSDMD; also recorded: lower affinity”. Besides, on C191A GSDMD, the “fold loss of liposome leakage inhibition, C191A versus WT GSDMD” value is 2 fold.
As for `CCN(CC)C(=S)SSC(=S)N(CC)CC` [C-23, Tetraethylthiuram disulfide], the “GSDMD processing in peritoneal macrophages” value with NLRP3, GSDMD and HMGB1 is given as “equally processed”. Also, in the experiment with NLRP3, GSDMD and HMGB1, the “NLRP3 priming in mice” value is “did not inhibit NLRP3 priming in mice”. Moreover, the “effect on already assembled pores” value at human GSDMD-3C (added after pore formation) is reported as “did not disrupt already assembled pores”. For the same compound, the “pore formation on nanodiscs” value at human GSDMD-3C (pretreated before adding to nanodiscs) is reported as “completely blocked”. Further, the survival result in experiment [3] (LPS 15 mg/kg, 50 mg/kg ip 24 and 4 hrs before, 96 hrs) is reported as “all the disulfiram-treated mice survived”; in experiment [3] (LPS 25 mg/kg, 50 mg/kg ip 24 and 4 hrs before) it was 5 of 8; in experiment [3] (LPS 25 mg/kg, 50 mg/kg ip post LPS, with copper gluconate 0.15 mg/kg) it was 2 of 8; in experiment [3] (LPS 25 mg/kg, 50 mg/kg ip post LPS, without copper), “died”; in experiment [3] (LPS 50 mg/kg, 50 mg/kg ip 24 and 4 hrs before), 1 of 8. Also, the “survival of Casp11−/− mice” value in experiment [3] (LPS challenge) was “did not significantly affect the survival”. Besides, in experiment [3] (LPS challenge), the “survival of Gsdmd−/− mice” value is reported as “did not significantly affect the survival”. In addition, the “survival of Casp1−/− mice” value in experiment [3] (lethal LPS challenge) is “protected”. The necroptosis entry in the experiment with HT-29 cells was “had no effect on necroptosis”. In the experiment with mouse iBMDMs [4], the “cell death triggered by the AIM2 inflammasome” value is “impaired cell death in a dose-dependent manner”.
